Results: PMC5962729 (Frontiers in Pharmacology, 2018)
One block for each molecule: values may come before it.

Assays:
[1] = Pharmacokinetic study of YCHD components and phase II metabolites in normal rats (UHPLC-MS/MS, sulfatase enzymolysis); format: in vivo, rat; details: for Tmax: po, 12 g/kg; for CL/F: read-out: CLz/F; for Vd/F: read-out: Vz/F; for direct detection of the prototype in rat plasma after YCHD administration: before enzymolysis, transformed into phase II metabolites completely
Description: (§1) To explore the pharmacokinetic properties of YCHD following intragastric administration in rats, a rapid and sensitive method involving the use of UHPLC-MS/MS (Agilent 6460 series, Agilent Technologies, Santa Clara, CA, United States) was developed and validated for the simultaneous quantification of 10 active components of rat plasma. The quantification was conducted in ESI negative ionization mode, and the mass spectrometry conditions were as follows: capillary voltage, 3500 V; gas flow, 12 L/min; nebulizer, 40 psi; gas temperature, 350°C; and delta EMV (-), 400. A 5 μL extraction sample was injected into the column (Agilent SB-C18 column, 2.1 mm × 50 mm, 1.8 μm) and eluted at 0.4 mL/min with a gradient elution of water (with 0.4% v/v formic acid) (A) and acetonitrile (B) (0–3 min, 5–60% B; 3–5 min, 60–90% B; 5–5.1 min, 90–5% B; and re-equilibration for 3 min).
(§2) To each 50 μL plasma sample, 10 μL of internal standard solution (paeoniflorin, 1000 ng/mL) and 300 μL of a mixed solution of methanol and acetonitrile (v/v, 1:1; containing 1% formic acid) were added. Subsequently, the solution was vortex mixed for 5 min. After centrifugation at 15,000 rpm for 5 min, the supernatant was transferred completely into a tube, before being evaporated under N2 at 40°C. The residue was then dissolved in 50 μL of 50% methanol–water (v/v, 1:1) through vortexing for 5 min, after centrifugation at 15,000 rpm for 10 min. Finally, 5 μL of the supernatant sample was injected into the UHPLC-MS/MS system for analysis.
The rats were randomly divided into two groups (n = 5 for each group). […] After 24 h, the two groups of rats received a single oral dose of YCHD (12 g/kg). Blood was collected in heparinized tubes at 5, 15, 30, 45, 60, 120, 240, 360, 480, 720, and 1440 min after administration. The blood samples were centrifuged at 4000 rpm for 10 min, and the supernatant plasma was harvested. Plasma samples (50 μL) were immediately processed as outlined in Section “Chromatographic and Mass Spectrometry Conditions.”
(§3) Additional plasma samples (50 μL) were enzymatically hydrolyzed with 50 μL of enzyme solution (65.86 mg of sulfatase, dissolved in 2 mL of sodium acetate buffer, pH 5.0) for phase II metabolite quantification, in accordance with our previous study ([Ding et al., 2012]). After being vortex mixed for 5 min, the mixture was incubated at 37°C for 30 min and then returned to room temperature. Subsequently, the samples were processed as outlined in Section “Chromatographic and Mass Spectrometry Conditions” for UHPLC-MS/MS analysis. During routine analysis, each analytical run included six blank plasma samples, a set of calibration samples, a set of QC samples, and unknowns.
(§4) All data are presented as mean ± SD. A one-way analysis of variance was used to compare data between two groups using SPSS (Version 21.0). The differences were considered to be statistically significant when p < 0.05 and highly significant when p < 0.01 or p < 0.001. Pharmacokinetic data analysis was performed using DAS 2.1.1 software (Mathematical Pharmacology Professional Committee of China, Shanghai, China).
After sulfatase-aided enzymolysis, all the phase II metabolites could transform into their prototypes, including rhein, emodin, genipin, and capillarisin. The specific contents of the phase II metabolites of these components were detected indirectly by evaluating the content difference of their prototypes in samples after enzymolysis and before enzymolysis
(§5) CG = Ca −[MG × (CGG/MGG + CGe/MGe)]
Ca, CGG, and CGe represent the concentration of genipin, genipin-1-β-D-gentiobioside, and geniposide after enzymolysis of sulfatase, respectively. MG, MGG-, and MGe represent the mass of genipin, genipin-1-β-D-gentiobioside, and geniposide, respectively. The pharmacokinetic curves of phase II metabolites are illustrated in Figure 4B.

[2] = Pharmacokinetic study of YCHD components and phase II metabolites in ANIT-induced cholestatic rats (UHPLC-MS/MS, sulfatase enzymolysis); format: in vivo, rat; details: for AUC(0-∞) / Ka: Model group (ANIT 50 mg/kg cholestatic rats); for AUC(0-∞) / Ka / Cmax / Tmax / CL/F / MRT inf / Vd/F / half-life: plasma; for Cmax / Tmax / CL/F / MRT inf / Vd/F / half-life: rat, po, 12 g/kg; for CL/F: read-out: CLz/F; for MRT inf: read-out: MRT (0-∞) (converted); for Vd/F: read-out: Vz/F; for half-life: read-out: t1/2z
Description: as §1, with “400.” for “400. A 5 μL extraction sample was injected into the column (Agilent SB-C18 column, 2.1 mm × 50 mm, 1.8 μm) and eluted at 0.4 mL/min with a gradient elution of water (with 0.4% v/v formic acid) (A) and acetonitrile (B) (0–3 min, 5–60% B; 3–5 min, 60–90% B; 5–5.1 min, 90–5% B; and re-equilibration for 3 min).”
as §2
The rats were randomly divided into two groups (n = 5 for each group). […] The blood samples were centrifuged at 4000 rpm for 10 min, and the supernatant plasma was harvested. Plasma samples (50 μL) were immediately processed as outlined in Section “Chromatographic and Mass Spectrometry Conditions.”
as §3, §4
The specific contents of the phase II metabolites of these components were detected indirectly by evaluating the content difference of their prototypes in samples after enzymolysis and before enzymolysis
as §5
Ca, CGG, and CGe represent the concentration of genipin, genipin-1-β-D-gentiobioside, and geniposide after enzymolysis of sulfatase, respectively. MG, MGG-, and MGe represent the mass of genipin, genipin-1-β-D-gentiobioside, and geniposide, respectively.

[3] = Identification of components and metabolites of YCHD in rat plasma, bile, urine and feces (UHPLC/Q-TOF-MS); format: in vivo; details: rats, oral YCHD 12 g/kg, urine, feces
Description: After centrifuging at 4000 rpm for 10 min, supernatant plasma was harvested into heparinized tubes and then stored at -20°C for preservation. The rats in the second group (n = 6) were kept individually in metabolic cages to collect urine and feces. […] Subsequently, the rats were orally administered a single dose of YCHD (12 g/kg of body weight). […] For the third group of rats (n = 6), bile duct intubation was implemented, and blank bile samples were collected before administration. After the administration of YCHD at 12 g/kg of body weight, the drug-containing bile samples were collected.
Plasma, bile, and urine samples (200 μL each) were separately precipitated with six times of methanol–acetonitrile mixed solution (v/v, 1:1; containing 1% formic acid). After being vortex mixed for 5 min and centrifuged at 15,000 rpm for 5 min at 4°C, the supernatant was separated into another clean tube and dried under a gentle stream of nitrogen at 45°C. Subsequently, the residue was reconstituted in 100 μL of 50% methanol–water (v/v) and then vortex mixed for 10 min. After another round of centrifugation at 15,000 rpm for 5 min at 4°C, 5 μL of the supernatant was analyzed by UHPLC-MS/MS. A 0.5 g sample of naturally dried feces was supplemented with 2 mL of 80% methanol–water (v/v) and then ultrasonically extracted for 30 min at 4°C. After being centrifuged at 15,000 rpm for 10 min, the supernatant was dried under a gentle stream of nitrogen at 45°C. Finally, the residue was reconstituted in 1 mL of 50% methanol–water (v/v) and then vortex mixed for 10 min. After another round of centrifugation at 15,000 rpm for 5 min at 4°C, 5 μL of the supernatant sample was injected into the UHPLC-MS/MS system for analysis.
Separations were conducted on an Agilent SB-C18 column (2.1 mm × 50 mm, 1.8 μm) of a UHPLC/Q-TOF-MS system (Waters, Corp., Milford, MA, United States) maintained at 40°C.
A Synapt G2 quadrupole time-of-flight (Q/TOF) MS/MS system (Waters, Corp., Manchester, United Kingdom) equipped with an electrospray ionization (ESI) interface was operated in negative ionization mode and controlled by MassLynx software (Version 4.1). The optimized conditions for maximum detection of metabolites were as follows: the capillary voltage was set at 3.0 kV, extraction cone voltage was set at 10 and 15 V, source temperature was maintained at 120°C, and desolvation temperature was maintained at 450°C. […] An MS^E approach using a dynamic ramp of collision energy was also applied at two (low and high collision energies) scan functions. The following parameters were set: Function 1 (low energy)—mass scan range, 100–1000; scan time, 0.25 s; interscan delay, 0.05 s; collision energy, 4 V. Function 2 (high energy)—mass scan range, 100–1000; scan time, 0.2 s; interscan delay, 0.05 s; collision energy ramp, 10–30 V. Data were acquired using Masslynx^TM (Version 4.1. Waters, Crop., Milford, MA, United States), and Metabolynx^TM (Waters, Crop., Milford, MA, United States) was applied for post-acquisition data processing.

[4] = Control group (normal rats), single oral YCHD 12 g/kg, plasma
[5] = Sprague Dawley, rat, plasma, in normal and cholestatic rats after oral administration of YCHD
[6] = Sprague Dawley, rat, Control group (normal rats), single oral YCHD 12 g/kg, plasma
[7] = rat, Control group (normal rats), single oral YCHD 12 g/kg, plasma

Structure (SMILES): O=C(O)/C=C/c1ccc(O)c(O)c1 [Caffeic acid]
AUC(0-∞) [1, 4]: 63847.8 ± 53249.0 µg·min/L
Ka [1, 4]: 119.2 ± 82.6 min⁻¹
Tmax ([1]; Sprague Dawley, rat, plasma, Control group (normal rats), single oral YCHD 12 g/kg, plasma): 15 min
Tmax [1, 5]: ≤ 27 min
Cmax [1, 6]: 286 ± 14.5 ng/mL
CL/F [1, 6]: 445 ± 38 mL/min/kg
MRT inf ([1]; Sprague Dawley, rat, Control group (normal rats), single oral YCHD 12 g/kg, plasma, read-out: MRT (0-∞) (converted)): 85.3 min
Vd/F [1, 7]: 35.7 ± 29.1 L/kg
half-life ([1]; rat, Control group (normal rats), single oral YCHD 12 g/kg, plasma, read-out: t1/2z): 56.3 ± 43 min
AUC(0-∞) ([2]; single oral YCHD 12 g/kg): 32651.4 ± 19640.7 µg·min/L
Ka ([2]; single oral YCHD 12 g/kg): 75.2 ± 24.5 min⁻¹
Cmax ([2]; Sprague Dawley): 78.9 ± 4.9 ng/mL
Tmax ([2]; Sprague Dawley): 24 min
CL/F ([2]; Sprague Dawley): 1190 ± 95 mL/min/kg
MRT inf ([2]; Sprague Dawley): 103 min
Vd/F [2]: 132 ± 39.7 L/kg
half-life [2]: 80.1 ± 27.5 min
AUC(0-∞) increased by, cholestatic model rats compared with normal rats ([2]; single oral YCHD 12 g/kg): 191.3%
AUC(0-∞) reduced by, cholestatic model rats compared with normal rats ([2]; single oral YCHD 12 g/kg): 48.9%
Cmax increased by, cholestatic model rats compared with normal rats ([2]; single oral YCHD 12 g/kg): 138.8%
Cmax reduced by, cholestatic model rats compared with normal rats ([2]; single oral YCHD 12 g/kg): 72.4%

Structure (SMILES): Cc1cc(O)c2c(c1)C(=O)c1cc(O)cc(O)c1C2=O [Emodin]
direct detection of the prototype in rat plasma after YCHD administration [1]: could not be detected directly
Source (biological samples in which the compound was identified) [3]: Plasma, bile, urine, feces

Structure (SMILES): COc1c(O)cc2oc(Oc3ccc(O)cc3)cc(=O)c2c1O [Capillarisin]
direct detection of the prototype in rat plasma after YCHD administration [1]: could not be detected directly
Source (biological samples in which the compound was identified) [3]: Urine, feces

Structure (SMILES): O=C(/C=C/c1ccc(O)c(O)c1)O[C@@H]1C[C@](O)(C(=O)O)C[C@@H](O)[C@H]1O [Chlorogenic acid]
AUC(0-∞) [1, 4]: 11559.2 ± 5248.0 µg·min/L
Ka [1, 4]: 19.0 ± 16.288 min⁻¹
Tmax [1, 5]: ≤ 27 min
Tmax ([1]; rat, plasma, Control group (normal rats), single oral YCHD 12 g/kg, plasma): 15 min
Cmax [1, 7]: 33 ± 4.5 ng/mL
CL/F [1, 7]: 1480 ± 921 mL/min/kg
Vd/F [1, 7]: 3800 ± 2060 L/kg
AUC(0-∞) ([2]; single oral YCHD 12 g/kg): 21437.2 ± 12572.8 µg·min/L
Ka ([2]; single oral YCHD 12 g/kg): 38.945 ± 18.022 min⁻¹
Cmax [2]: 78.9 ± 4.9 ng/mL
Tmax [2]: 27 min
CL/F [2]: 1360 ± 523 mL/min/kg
MRT inf [2]: 1990 min
Vd/F [2]: 2110 ± 1660 L/kg
half-life [2]: 1660 ± 2120 min

Structure (SMILES): Cc1cc(O)c2c(c1)C(=O)c1cc(OS(=O)(=O)O)cc(O)c1C2=O [M7, Emodin-O-SO3]
Source (biological samples in which the compound was identified) [3]: Plasma, urine, feces

Structure (SMILES): COC(=O)C1=CO[C@@H](O)[C@@H]2C(CO)=CC[C@H]12 [Genipin]
direct detection of the prototype in rat plasma after YCHD administration [1]: could not be detected directly
Source (biological samples in which the compound was identified) [3]: Bile, urine, feces

More lines, now with the values ahead:

Source (biological samples in which the compound was identified) [3]: Plasma, bile, urine, feces
Structure (SMILES): CC(=O)c1ccc(OS(=O)(=O)O)cc1 [M6, 4-Hydroxyacetophenone-1-O-SO3]

Source (biological samples in which the compound was identified) [3]: Bile, urine, feces
Structure (SMILES): COC(=O)C1=COC(OS(=O)(=O)O)C2C(CO)=CCC12 (stereo not shown) [M3, Genipin-1-O-SO3]

Source (biological samples in which the compound was identified) [3]: Plasma, bile, urine, feces
Structure (SMILES): COC(=O)C1=COC(OC2OC(C(=O)O)C(O)C(O)C2O)C2C(CO)=CCC12 (stereo not shown) [M2, Genipin-1-O-gluA]
